Values of other authors as cited in PMC4022290 (Nuclear medicine and biology, 2013).

Tested on: tumors

D-Phe-Gln-Trp-Ala-Val-Gly-His-Sta-Leu-NH2 [RM2]
uptake and retention in tumors vs agonist GRPr-targeting ligands: improved uptake and retention in tumors as compared to agonist GRPr-targeting ligands
